We go through 1 molecule from BindingDB's records for doi:10.1016/j.bmcl.2010.09.117 (University of London, 2010).

The target in this experiment is Signal transducer and activator of transcription 3 (Homo sapiens, UniProt P40763). In words: Inhibition of STAT3 in human HeLa cells by luciferase reporter assay. (In general: A reporter such as luciferase makes a cellular process visible.)
Sequence of Signal transducer and activator of transcription 3 (P40763 whole entry): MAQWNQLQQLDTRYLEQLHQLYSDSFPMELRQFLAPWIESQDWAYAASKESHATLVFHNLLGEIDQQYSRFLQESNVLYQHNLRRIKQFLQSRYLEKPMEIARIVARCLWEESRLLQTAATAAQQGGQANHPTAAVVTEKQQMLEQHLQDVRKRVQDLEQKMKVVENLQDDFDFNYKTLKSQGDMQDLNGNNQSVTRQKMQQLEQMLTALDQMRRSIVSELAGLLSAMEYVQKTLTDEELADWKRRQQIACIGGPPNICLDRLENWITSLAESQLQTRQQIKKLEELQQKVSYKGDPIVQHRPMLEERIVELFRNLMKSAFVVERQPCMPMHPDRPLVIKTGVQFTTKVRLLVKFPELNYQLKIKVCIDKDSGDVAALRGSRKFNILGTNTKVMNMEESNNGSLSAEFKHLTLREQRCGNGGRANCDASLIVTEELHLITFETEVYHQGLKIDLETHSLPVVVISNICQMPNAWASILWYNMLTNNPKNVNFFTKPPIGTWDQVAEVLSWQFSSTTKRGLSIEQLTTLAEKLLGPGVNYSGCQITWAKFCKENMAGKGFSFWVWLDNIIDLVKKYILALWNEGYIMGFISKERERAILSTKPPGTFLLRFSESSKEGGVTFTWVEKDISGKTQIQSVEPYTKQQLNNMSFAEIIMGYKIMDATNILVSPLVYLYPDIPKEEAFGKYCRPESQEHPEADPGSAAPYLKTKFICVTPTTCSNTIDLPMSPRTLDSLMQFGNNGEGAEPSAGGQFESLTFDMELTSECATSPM

One may read the EC50 as the concentration that produces a half-maximal response. A low value points to a more potent agent. In the case of `Cc1ccc(-c2sc(C(=O)NCc3cccs3)cc2S(=O)(=O)N2CCCC2)cc1` [4-(pyrrolidin-1-ylsulfonyl)-N-(thiophen-2-ylmethyl)-5-p-tolylthiophene-2-carboxamide], the EC50 stood at 15 µM.
